Paper PMC8552062, “Contributions of UDP-Glucuronosyltransferases to Human Hepatic and Intestinal Metabolism of Ticagrelor and Inhibition of UGTs and Cytochrome P450 Enzymes by Ticagrelor and its Glucuronidated Metabolite” (Frontiers in Pharmacology, 2021)

Columns and labels:
Format in all cases: in vitro ADME
CYP3A4 = biological target: T1, CYP3A4 (Homo sapiens, UniProt P08684); assay: CYP3A4 inhibition in HLM (testosterone 6β-hydroxylase); conditions: human liver microsomes, pH 7.4, probe testosterone (80 μM), 6β-hydroxy testosterone formation
T1 construct: co-incubation ticagrelor-O-Glu with selective P450 probe substrates in HLM; tissue XenoTech LLC; host or cells: pooled human liver microsomes
Protocol: The potential inhibitory effects of ticagrelor-O-Glu on the activities of major CYPs, i.e., CYP2B6, CYP2C8, CYP2C9, CYP2C19, CYP2D6, and CYP3A4, were evaluated by co-incubation ticagrelor-O-Glu with selective P450 probe substrates in HLM. Each incubation mixture containing 0.2 mg/ml HLM, ticagrelor-O-Glu and respective substrate (the final substrate concentrations are close to or less than the Km values: 150 μM bupropion, 1.26 μM amodiaquine, 10 μM diclofenac, 20 μM mephenytoin, 20 μM dextromethorphan and 80 μM testosterone (in house data)) in potassium phosphate buffer (100 mM, pH 7.4) was pre-incubated at 37°C for 5 min. Then, NADPH (10 mM) was added to initiate the reaction. The final volume of the incubation mixture was 100 μl. After incubation at 37°C for specific time points, the reaction was terminated by the addition of 200 μl of ice-cold methanol solution with internal standards (diazepam and furafylline). […] The formation of respective metabolites was determined to reflect P450 isoform activities. The metabolites quantified for CYP2B6, CYP2C8, CYP2C9, CYP2C19, CYP2D6, and CYP3A4 were hydroxy bupropion, N-Desethyl amodiaquine, 4′-hydroxylation diclofenac, S-4-hydroxy mephenytoin, dextrorphan and 6β-hydroxy testosterone, respectively.
(§1) The percent inhibition relative to the control was calculated to indicate the UGTs or CYPs inhibition. […]

CYP2C9 = biological target: T2, CYP2C9 (Homo sapiens, UniProt P11712); assay: CYP2C9 inhibition in HLM (diclofenac 4′-hydroxylase)
T2 construct: co-incubation ticagrelor-O-Glu with selective P450 probe substrates in HLM; tissue XenoTech LLC; host or cells: pooled human liver microsomes
Protocol: The potential inhibitory effects of ticagrelor-O-Glu on the activities of major CYPs, i.e., CYP2B6, CYP2C8, CYP2C9, CYP2C19, CYP2D6, and CYP3A4, were evaluated by co-incubation ticagrelor-O-Glu with selective P450 probe substrates in HLM. Each incubation mixture containing 0.2 mg/ml HLM, ticagrelor-O-Glu and respective substrate (the final substrate concentrations are close to or less than the Km values: 150 μM bupropion, 1.26 μM amodiaquine, 10 μM diclofenac, 20 μM mephenytoin, 20 μM dextromethorphan and 80 μM testosterone (in house data)) in potassium phosphate buffer (100 mM, pH 7.4) was pre-incubated at 37°C for 5 min. Then, NADPH (10 mM) was added to initiate the reaction. The final volume of the incubation mixture was 100 μl. After incubation at 37°C for specific time points, the reaction was terminated by the addition of 200 μl of ice-cold methanol solution with internal standards (diazepam and furafylline). Preliminary screening experiments with selected concentrations of ticagrelor-O-Glu (0, 1, 10, or 100 μM of the final concentration) were carried out to determine the inhibition potency. For those that produced approximately 50% inhibition of CYPs enzyme activities at a ticagrelor-O-Glu concentration between 1 and 100 μM, IC50 was further determined with various concentrations of ticagrelor-O-Glu (0, 1, 5, 10, 20, 50, and 100 μM). All the experiments were performed in triplicates. The supernatant was obtained after centrifugation at 14,000 rpm for 10 min and injected into LC-MS/MS for the analysis of the respective metabolites. The formation of respective metabolites was determined to reflect P450 isoform activities. The metabolites quantified for CYP2B6, CYP2C8, CYP2C9, CYP2C19, CYP2D6, and CYP3A4 were hydroxy bupropion, N-Desethyl amodiaquine, 4′-hydroxylation diclofenac, S-4-hydroxy mephenytoin, dextrorphan and 6β-hydroxy testosterone, respectively.
as §1

UGT1A4 = biological target: T3, UGT1A4 (Homo sapiens, UniProt P22310); assay: Ticagrelor glucuronidation by recombinant human UGT1A4; parameters: purchased BD Gentest; host or cells: baculovirus-infected insect cells; conditions: recombinant human UGT1A4, pH 7.4
T3 sequence (P22310 29-534): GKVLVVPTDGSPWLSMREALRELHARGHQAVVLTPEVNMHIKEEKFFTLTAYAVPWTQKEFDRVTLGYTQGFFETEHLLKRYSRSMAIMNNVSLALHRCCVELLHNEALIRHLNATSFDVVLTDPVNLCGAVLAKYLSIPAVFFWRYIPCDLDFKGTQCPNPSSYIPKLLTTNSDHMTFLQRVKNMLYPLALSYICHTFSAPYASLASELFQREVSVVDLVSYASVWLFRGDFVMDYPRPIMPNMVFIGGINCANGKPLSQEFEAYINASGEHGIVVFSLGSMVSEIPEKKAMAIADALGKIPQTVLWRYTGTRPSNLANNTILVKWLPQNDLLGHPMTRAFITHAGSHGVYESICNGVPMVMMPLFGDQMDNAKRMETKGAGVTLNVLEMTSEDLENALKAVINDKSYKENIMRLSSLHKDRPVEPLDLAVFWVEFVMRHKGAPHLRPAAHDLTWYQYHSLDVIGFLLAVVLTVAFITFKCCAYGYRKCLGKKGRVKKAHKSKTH
Protocol: (§2) Ticagrelor glucuronidation was investigated in an in vitro incubation system by using HLM, HIM, and recombinant human UGTs. The incubation system consisted of enzyme sources (HLM, HIM, or human recombinant UGTs), various concentrations of ticagrelor (dissolved in 50% methanol, 1% v/v, 1, 2, 5, 10, 20, 50, 100, 200, 500 μM of final concentration), alamethicin (50 μg/mg protein), 5 mM MgCl2, 100 mM tris-HCL buffer (pH 7.4), and 5 mM UDPGA in a total volume of 100 μl. Alamethicin is a pore-forming polypeptide used to activate UGTs in HLM and HIM ([Fisher et al., 2000]). Preliminary studies were conducted to determine the optimal protein concentrations and incubation times. Linear conditions of ticagrelor-O-Glu formation from ticagrelor, i.e., HLM, 0.2 mg of protein/ml and 60 min, HIM, 0.2 mg of protein/ml and 60 min, and recombinant human UGTs, 0.2 mg of protein/ml and 60 min were selected. The incubation mixture without UDPGA was placed on ice for 15 min to activate UGT by alamethicin. […]
Kinetic analyses were performed using the mean values of triplicate determinations with either pooled HLM, HIM, or recombinant human UGTs. All data were analyzed by nonlinear regression analysis using the GraphPad Prism 6 (GraphPad Software Inc., CA, United States). […] Intrinsic clearance (CLint) was calculated by dividing Vmax by Km.

[1] = biological target: T4, recombinant human UGT2B17 (Homo sapiens, UniProt O75795); assay: Ticagrelor glucuronidation screen, recombinant human UGT2B17; conditions: 10 μM ticagrelor
T4 construct: purchased BD Gentest; host or cells: baculovirus-infected insect cells
Protocol: as §2, with “alamethicin. After pre-incubation for 5 min at 37°C, the reactions were started by the addition of UDPGA. After another 60 min of incubation at 37°C, the reaction was terminated by adding 100 μl of acetonitrile containing internal standard (diazepam). The mixture vortexed for 2 min and then centrifuged at 14,000 rpm for 10 min at 4°C.” for “alamethicin.”

T2 sequence (P11712 whole entry): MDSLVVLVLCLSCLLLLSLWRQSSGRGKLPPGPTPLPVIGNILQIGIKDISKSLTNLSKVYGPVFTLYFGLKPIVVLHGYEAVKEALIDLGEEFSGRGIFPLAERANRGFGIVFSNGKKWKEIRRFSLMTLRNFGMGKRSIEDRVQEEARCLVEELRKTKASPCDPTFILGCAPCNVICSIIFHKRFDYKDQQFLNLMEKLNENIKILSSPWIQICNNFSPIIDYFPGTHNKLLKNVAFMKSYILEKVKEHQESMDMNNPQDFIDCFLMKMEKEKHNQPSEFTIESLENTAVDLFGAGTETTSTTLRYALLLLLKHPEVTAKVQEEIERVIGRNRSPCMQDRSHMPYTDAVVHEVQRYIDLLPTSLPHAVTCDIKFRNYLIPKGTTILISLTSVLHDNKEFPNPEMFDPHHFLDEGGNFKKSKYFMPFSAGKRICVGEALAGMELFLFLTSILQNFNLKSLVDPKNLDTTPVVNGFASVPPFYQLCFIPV
T1 sequence (P08684 whole entry): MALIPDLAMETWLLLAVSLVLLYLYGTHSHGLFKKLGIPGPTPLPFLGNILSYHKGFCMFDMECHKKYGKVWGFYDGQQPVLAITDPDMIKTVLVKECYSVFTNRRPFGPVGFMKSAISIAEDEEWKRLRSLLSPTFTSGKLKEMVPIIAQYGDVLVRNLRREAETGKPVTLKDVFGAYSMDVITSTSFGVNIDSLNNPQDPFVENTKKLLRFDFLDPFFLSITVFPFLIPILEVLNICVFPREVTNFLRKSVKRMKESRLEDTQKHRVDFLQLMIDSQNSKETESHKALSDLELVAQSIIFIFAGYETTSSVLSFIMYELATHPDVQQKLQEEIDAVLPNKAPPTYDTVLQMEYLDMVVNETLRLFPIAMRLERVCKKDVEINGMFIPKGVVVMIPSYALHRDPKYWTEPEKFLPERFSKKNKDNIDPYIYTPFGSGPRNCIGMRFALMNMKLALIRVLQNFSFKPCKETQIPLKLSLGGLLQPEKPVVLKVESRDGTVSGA
T4 sequence (O75795 24-530): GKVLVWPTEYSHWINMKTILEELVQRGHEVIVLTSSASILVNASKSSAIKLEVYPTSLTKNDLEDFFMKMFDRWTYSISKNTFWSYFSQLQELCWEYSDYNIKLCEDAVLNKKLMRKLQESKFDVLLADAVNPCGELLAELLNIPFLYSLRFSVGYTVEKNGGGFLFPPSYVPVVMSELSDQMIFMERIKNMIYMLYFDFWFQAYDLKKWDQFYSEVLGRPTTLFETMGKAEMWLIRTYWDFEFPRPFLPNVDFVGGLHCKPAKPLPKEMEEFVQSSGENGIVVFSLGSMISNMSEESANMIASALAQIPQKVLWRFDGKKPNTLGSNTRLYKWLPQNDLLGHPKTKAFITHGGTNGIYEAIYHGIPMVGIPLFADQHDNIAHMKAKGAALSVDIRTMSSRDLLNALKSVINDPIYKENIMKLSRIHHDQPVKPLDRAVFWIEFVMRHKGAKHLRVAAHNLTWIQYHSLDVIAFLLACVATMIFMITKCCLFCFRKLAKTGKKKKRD

Row | IC50 (CYP3A4; CYP3A4, testosterone 6β-hydroxylase, HLM 0.2 mg/ml) [µM] | inhibition at 100 µM (CYP3A4; HLM, 100 μM ticagrelor-O-Glu, read-out: inhibition of CYP3A4 enzyme activity) [%] | IC50 (CYP2C9; CYP2C9, diclofenac 4′-hydroxylase, HLM 0.2 mg/ml) [µM] | inhibition at 10 μM (CYP2C9; human, human liver microsomes, pH 7.4, probe diclofenac (10 μM), 4′-hydroxylation diclofenac formation, HLM, 10 μM ticagrelor-O-Glu, read-out: inhibition of CYP2C9 enzyme activity) [%] | inhibition at 100 µM (CYP2C9; human, human liver microsomes, pH 7.4, probe diclofenac (10 μM), 4′-hydroxylation diclofenac formation, HLM, 100 μM ticagrelor-O-Glu, read-out: inhibition of CYP2C9 enzyme activity) [%] | microsomal CLint (UGT1A4) [µL/min/mg] | glucuronidation activity for ticagrelor [1] | Structure (SMILES)
1 | > 100 | 57.1 | 20 | 44 | 73.5 |  |  | CCCSc1nc(N[C@@H]2C[C@H]2c2ccc(F)c(F)c2)c2nnn([C@@H]3C[C@H](OCCO[C@@H]4O[C@H](C(=O)O)[C@@H](O)[C@H](O)[C@H]4O)[C@@H](O)[C@H]3O)c2n1 [Ticagrelor-O-Glu, ticagrelor-O-glucuronide]
2 |  |  |  |  |  | 0.04 | no glucuronidation activities | CCCSc1nc(N[C@@H]2C[C@H]2c2ccc(F)c(F)c2)c2nnn([C@@H]3C[C@H](OCCO)[C@@H](O)[C@H]3O)c2n1 [Ticagrelor]
